Assay results reported in publication PMC12087874, “Biaryl Phosphates and Phosphonates as Selective Inhibitors of the Transcription Factor STAT4” (Angewandte Chemie (International Ed. in English), 2025).
Entries after “also recorded” stand apart in the source; their conditions may differ.

Target: T1, STAT4 (Homo sapiens, UniProt Q14765)
T1 sequence (Q14765 1-748): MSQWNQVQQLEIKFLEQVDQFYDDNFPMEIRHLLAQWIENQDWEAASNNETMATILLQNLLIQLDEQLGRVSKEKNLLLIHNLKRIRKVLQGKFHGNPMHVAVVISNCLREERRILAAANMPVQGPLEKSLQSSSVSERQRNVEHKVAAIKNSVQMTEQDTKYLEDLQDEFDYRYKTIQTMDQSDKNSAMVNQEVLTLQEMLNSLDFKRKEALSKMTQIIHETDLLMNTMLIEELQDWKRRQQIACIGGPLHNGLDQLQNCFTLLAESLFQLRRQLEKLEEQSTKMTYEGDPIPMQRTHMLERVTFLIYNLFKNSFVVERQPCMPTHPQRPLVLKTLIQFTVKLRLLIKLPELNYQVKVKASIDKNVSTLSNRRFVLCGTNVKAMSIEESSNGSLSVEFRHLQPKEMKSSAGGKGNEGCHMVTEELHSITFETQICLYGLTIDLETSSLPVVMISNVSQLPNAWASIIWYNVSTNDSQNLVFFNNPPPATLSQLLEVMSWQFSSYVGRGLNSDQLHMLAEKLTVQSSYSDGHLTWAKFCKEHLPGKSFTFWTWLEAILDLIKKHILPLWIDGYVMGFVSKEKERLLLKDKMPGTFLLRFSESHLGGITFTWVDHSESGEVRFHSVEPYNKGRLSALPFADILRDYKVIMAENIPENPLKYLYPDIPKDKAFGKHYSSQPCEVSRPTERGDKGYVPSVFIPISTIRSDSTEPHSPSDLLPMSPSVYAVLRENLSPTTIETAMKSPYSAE
Test: Competitive fluorescence polarization (FP) assay, STAT4 SH2 domain
Type: binding
Settings: FP assay; for Ki: tracer 5-carboxyfluorescein-GpYLPQNID-OH, Ki derived from IC50, read-out: STAT4 K i; for Ki / IC50: mean ± SD, n = 3
Description: Fluorescence polarization assays
Competitive fluorescence polarization assays, which measure the abilities of test compounds (dissolved in DMSO) to displace a fluorescent-labeled peptide from the SH2 domain of a STAT protein, were carried out essentially as described. Proteins were used at the following final concentrations: 23 nM or 28 nM for STAT4; between 56 nM and 91 nM for STAT1; 107 nM or 110 nM for STAT3; between 131 nM and 177 nM for STAT5a; between 62 nM and 85 nM for STAT5b; and 101 nM or 106 nM for STAT6. These concentrations represent the approximate […]
dissociation constant for peptide binding of the respective protein batches used in the assays.
The following peptides were used: 5-carboxyfluorescein-GpYLPQNID-OH for STAT4; 5-carboxyfluorescein-GpYDKPHVL for STAT1; 5-carboxyfluorescein-GpYLPQTV-NH2 for STAT3; 5-carboxyfluorescein-GpYLVLDKW for STAT5a/b, and 5-carboxyfluorescein- […]
Gp[…]-OH for STAT6. All peptides were used at a final concentration of 10 nM. The buffer consisted of 10 mM Tris (pH 8.0), 50 mM NaCl, 1 mM EDTA, 1 mM DTT, 0 .1 % Nonidet P-40 substitute, and 2 % DMSO. After incubation of protein and test compound for 1 h at room temperature, the fluorescent -labeled peptide was added. Samples were transferred to 384 - well microtiter plates and fluorescence polarization was read after an additional 60 min of incubation time. Measurements were performed in triplicate. Percent binding was calculated based on a logarithmic curve fit using OriginPro 8G software. IC 50 values were converted to Ki-values via the published equation[3] using the corresponding Excel spread sheet […]
https://websites.umich.edu/~shaomengwanglab/software/calc_ki/index.html .
Error bars represent standard deviations. Ligand efficiencies (LE) were calculated by the formula LE = -1,37 x log Ki / number of non-hydrogen atoms.[4] […]

Row | Compound | Ki [µM] | IC50 [µM] | inhibition at 100 µM (100 µM, the highest concentration tested) [%] | STAT4 inhibition at 200 µM (200 µM)
1 | Oc1ccc(-c2ccc3ccccc3c2)cc1F [Compound 4m] |  |  |  | lack of activity; also recorded: no inhibition at 200 µM
2 | COC(=O)c1ccccc1-c1ccc(OP(=O)(O)O)cc1 [Compound 6a] | 9.1 ± 0.8 | 18 ± 2 |  | 
3 | O=C(O)c1ccccc1-c1ccc(OP(=O)(O)O)cc1 [Compound 6b] | 7.8 ± 0.5 | 17 ± 1 |  | 
4 | N#Cc1ccccc1-c1ccc(OP(=O)(O)O)cc1 [Compound 6c] | 2.7 ± 0.3 | 5.2 ± 0.6 |  | 
5 | CC(=O)NCc1ccccc1-c1ccc(OP(=O)(O)O)cc1 [Compound 6d] | 6.2 ± 0.4 | 12 ± 1 |  | 
6 | COc1cc(OC)cc(-c2ccc(OP(=O)(O)O)cc2)c1 [Compound 6e] | 1.9 ± 0.1 | 3.9 ± 0.2 |  | 
7 | O=P(O)(O)Oc1ccc(-c2cccc3ccccc23)cc1 [Compound 6f] | 0.84 ± 0.08 | 1.8 ± 0.2 |  | 
8 | O=P(O)(O)Oc1ccc(-c2ccccc2)c(F)c1 [Compound 6i] | 3.8 ± 0.1 | 8.1 ± 0.1 |  | 
9 | O=P(O)(O)Oc1c(F)cc(-c2ccccc2)cc1F [Compound 6j] | 2 ± 0.1 | 4.3 ± 0.3 |  | 
10 | O=P(O)(O)Oc1ccc(-c2ccccc2)cc1Cl [Compound 6k] | 3.3 ± 1 | 7 ± 2 |  | 
11 | COc1cc(-c2ccccc2)ccc1OP(=O)(O)O [Compound 6l] | 22 ± 2 | 47 ± 5 |  | 
12 | O=P(O)(O)Cc1ccc(-c2ccc3ccccc3c2)cc1F [Compound 7] |  |  | 33 ± 4 | 

Now from value to compound, other results behind:

Row | Ki [µM] | IC50 [µM] | inhibition at 100 µM (100 µM, the highest concentration tested) [%] | Compound | STAT4 inhibition at 200 µM (200 µM)
13 | 39 ± 1 | 83 ± 2 |  | O=P(O)(O)C(F)(F)c1ccc(-c2ccoc2)cc1F [Compound 8b] | 
14 | 8 ± 0.7 | 15 ± 1 |  | Cn1cc(-c2ccc(C(F)(F)P(=O)(O)O)c(F)c2)cn1 [Compound 8c] | 
15 | 3.6 ± 0.2 | 7.7 ± 0.4 |  | O=P(O)(O)C(F)(F)c1ccc(-c2cccs2)cc1F [Compound 8d] | 
16 | 2.8 ± 0.3 | 6 ± 0.6 |  | O=P(O)(O)C(F)(F)c1ccc(-c2ccsc2)cc1F [Compound 8e] | 
17 | 4.4 ± 0.1 | 9.4 ± 0.2 |  | COC(=O)c1cc(-c2ccc(C(F)(F)P(=O)(O)O)c(F)c2)cs1 [Compound 8f] | 
18 | 11 ± 2 | 24 ± 4 |  | NC(=O)c1cc(-c2ccc(C(F)(F)P(=O)(O)O)c(F)c2)cs1 [Compound 8g] | 
19 | 7.1 ± 0.6 | 15 ± 1 |  | CC(=O)c1cc(-c2ccc(C(F)(F)P(=O)(O)O)c(F)c2)cs1 [Compound 8h] | 
20 | 5.5 ± 0.7 | 12 ± 2 |  | O=P(O)(O)C(F)(F)c1ccc(-c2csc(Cl)c2)cc1F [Compound 8i] | 
21 | 7.3 ± 0.6 | 15 ± 1 |  | O=P(O)(O)C(F)(F)c1ccc(-c2ccsc2Cl)cc1F [Compound 8j] | 
22 | 8.7 ± 0.9 | 18 ± 2 |  | Cc1sccc1-c1ccc(C(F)(F)P(=O)(O)O)c(F)c1 [Compound 8l] | 
23 | 8.9 ± 0.7 | 19 ± 1 |  | Cc1cscc1-c1ccc(C(F)(F)P(=O)(O)O)c(F)c1 [Compound 8m] | 
